Results published in patent EP0313984A1, “Substituted azolyl methyl carbinols and pharmaceutical compositions containing them” (BAYER AG, priority 1987, dated 1989).
Values after ≈ are worked out from the molar mass of the structure shown.

Legend:
[1] = tested on: Dermatophyten, Schimmelpilze, Hefen; test: Antimycotic in-vitro activity, serial dilution test (overall comparison); assay type: cell-based; settings: compared in words with known compounds (A) and (B)
Procedure: (§1) Die in-vitro-Prüfungen wurden im Reihenverdünnungstest mit Keiminokula von durchschnittlich 5 x 10³ bis 10⁴ Keimen/ml Substrat durchgeführt. Als Nährmedium dienten • a) für Dermatophyten und Schimmelpilze: Sabouraud's milieu d'epreuve • b) für Hefen: Fleischextrakt-Traubenzucker-Bouillon.
(§2) Die Bebrütungstemperatur betrug 28 °C bis 37 °C, die Bebrütungsdauer lag bei 24 bis 96 Stunden bei Hefen und 96 Stunden bei Dermatophyten und Schimmelpilzen.

Trichophyton mentagr. = test: Antimycotic in-vitro activity, serial dilution test (MIC); assay type: cell-based, Trichophyton mentagrophytes; settings: inoculum 5 x 10³ to 10⁴ Keime/ml, Sabouraud's milieu d'epreuve, 28 °C to 37 °C, 96 h, read-out: MHK-Werte Trichophyton mentagr.
Procedure: as §1, §2

Aspergillus fumigatus = test: as above; assay type: cell-based; settings: inoculum 5 x 10³ to 10⁴ Keime/ml, Sabouraud's milieu d'epreuve, 28 °C to 37 °C, 96 h, read-out: MHK-Werte Aspergillus fumigatus
Procedure: as §1, §2

Candida albicans = test: as above; assay type: cell-based; settings: inoculum 5 x 10³ to 10⁴ Keime/ml, Fleischextrakt-Traubenzucker-Bouillon, 28 °C to 37 °C, 24 to 96 h, read-out: MHK-Werte Candida albicans
Procedure: as §1, §2

Torulopsis glabrata = test: as above; assay type: cell-based; settings: Nakaseomyces glabratus, inoculum 5 x 10³ to 10⁴ Keime/ml, Fleischextrakt-Traubenzucker-Bouillon, 28 °C to 37 °C, 24 to 96 h, read-out: MHK-Werte Torulopsis glabrata
Procedure: as §1, §2

Microsporum canis = test: as above; assay type: cell-based; settings: inoculum 5 x 10³ to 10⁴ Keime/ml, Sabouraud's milieu d'epreuve, 28 °C to 37 °C, 96 h, read-out: MHK-Werte Microsporum canis
Procedure: as §1, §2

Candida = test: Antimycotic in-vivo activity (oral) in mouse candidosis; set-up: species or system Mäuse vom Typ SPF-CF₁
Procedure: Mäuse vom Typ SPF-CF₁ werden intravenös mit 1 - 2 x 10⁶ logarithmisch wachsenden Candida-Zellen, die in physiologischer Kochsalzlösung suspendiert werden, infiziert. Eine Stunde vor und sieben Stunden nach der Infektion werden die Tiere mit jeweils 25 - 100 mg/kg Körpergewicht der Präparate oral behandelt.
Unbehandelte Tiere sterben 3 bis 6 Tage post infektionem. Die Überlebensrate am 6.Tag post infektionem beträgt bei unbehandelten Kontrolltieren etwa 5 %.

[2] = mouse candidosis, oral, compared in words with known compounds (A) and (B)

## OC(Cn1cncn1)(c1ccc(F)cc1)c1csc(-c2ccccc2)n1 (stereo not drawn) [Verbindung 28]
[1]
  antimykotische Wirksamkeit: bessere antimykotische Wirksamkeit

## OC(Cn1cncn1)(c1ccc(F)cc1)c1csc(-c2ccc(F)cc2)n1 (stereo not drawn) [Verbindung 44]
[1]
  antimykotische Wirksamkeit: bessere antimykotische Wirksamkeit

## OC(Cn1ccnc1)(c1ccc(Cl)cc1)c1csc(-c2ccccc2)n1 (stereo not drawn) [Verbindung 62]
[1]
  antimykotische Wirksamkeit: bessere antimykotische Wirksamkeit

## OC(Cn1cncn1)(Cn1cncn1)c1ccccc1 [(A), 2-Phenyl-1,3-bis-(1,2,4-triazol-1-yl)-propan-2-ol, reference compound]
Trichophyton mentagr.
  MIC: 64 µg/mL (≈ 237 µM)
Aspergillus fumigatus
  MIC: > 64 µg/mL
Candida albicans
  MIC: 64 µg/mL (≈ 237 µM)
Torulopsis glabrata
  MIC: > 64 µg/mL

## OC(Cn1ccnc1)(c1ccc(Cl)cc1)c1csc(-c2ccc(Cl)cc2)n1 (stereo not drawn) [Verbindung 20]
[1]
  antimykotische Wirksamkeit: bessere antimykotische Wirksamkeit

## Cc1ccccc1-c1nc(C(O)(Cn2cncn2)c2ccc(Cl)cc2)cs1 (stereo not drawn) [Verbindung 52]
[1]
  antimykotische Wirksamkeit: bessere antimykotische Wirksamkeit

## OC(Cn1cncn1)(c1ccc(Cl)cc1)c1csc(Nc2ccccc2)n1 (stereo not drawn) [Verbindung 45]
[1]
  antimykotische Wirksamkeit: bessere antimykotische Wirksamkeit

## OC(Cn1cncn1)(c1ccc(Cl)cc1)c1csc(-c2ccc(F)c(Cl)c2)n1 (stereo not drawn) [Verbindung 47]
[1]
  antimykotische Wirksamkeit: bessere antimykotische Wirksamkeit

## OC(Cn1ccnc1)(c1ccc(F)cc1)c1csc(-c2ccccc2)n1 (stereo not drawn) [Verbindung 27]
[1]
  antimykotische Wirksamkeit: bessere antimykotische Wirksamkeit

## Cc1ccc(-c2nc(C(O)(Cn3cncn3)c3ccc(Cl)cc3)cs2)cc1 (stereo not drawn) [Verbindung 15]
[1]
  antimykotische Wirksamkeit: bessere antimykotische Wirksamkeit
Trichophyton mentagr.
  MIC: < 1 µg/mL
Microsporum canis
  MIC: 8 µg/mL (≈ 20.2 µM)
Aspergillus fumigatus
  MIC: 4 µg/mL (≈ 10.1 µM)
Candida albicans
  MIC: 4 µg/mL (≈ 10.1 µM)
Torulopsis glabrata
  MIC: 4 µg/mL (≈ 10.1 µM)

## OC(Cn1cncn1)(c1ccc(Cl)cc1)c1csc(-c2ccc(Cl)cc2)n1 (stereo not drawn) [Verbindung 21]
Candida; [2]
  Wirkung: bessere Wirkung
[1]
  antimykotische Wirksamkeit: bessere antimykotische Wirksamkeit

## OC(Cn1cncn1)(c1ccc(F)cc1)c1csc(-c2ccc(Cl)cc2)n1 (stereo not drawn) [Verbindung 40]
Candida; [2]
  Wirkung: bessere Wirkung
[1]
  antimykotische Wirksamkeit: bessere antimykotische Wirksamkeit

## Cc1ccc(C(O)(Cn2cncn2)c2csc(C)n2)cc1 (stereo not drawn) [Verbindung 57]
Candida; [2]
  Wirkung: bessere Wirkung

## CN(c1ccccc1)c1nc(C(O)(Cn2cncn2)c2ccc(Cl)cc2)cs1 (stereo not drawn) [Verbindung 43]
[1]
  antimykotische Wirksamkeit: bessere antimykotische Wirksamkeit

## OC(Cn1ccnc1)(c1ccc(Cl)cc1)c1csc(N2CCCCC2)n1 (stereo not drawn) [Verbindung 18]
[1]
  antimykotische Wirksamkeit: bessere antimykotische Wirksamkeit
Trichophyton mentagr.
  MIC: < 1 µg/mL
Microsporum canis
  MIC: 64 µg/mL (≈ 165 µM)
Aspergillus fumigatus
  MIC: 32 µg/mL (≈ 82.3 µM)
Candida albicans
  MIC: 8 µg/mL (≈ 20.6 µM)
Torulopsis glabrata
  MIC: 16 µg/mL (≈ 41.1 µM)

## CC(C)(n1cncn1)C(O)(Cn1ccnc1)c1ccc(F)cc1 (stereo not drawn) [(B), 2-(4-Fluorphenyl)-3-methyl-1-imidazol-1-yl-3-(1,2,4-triazol-1-yl)-butan-2-ol, reference compound]
Candida; mice infected i.v. with 1 - 2 x 10⁶ Candida cells, 25 - 100 mg/kg oral 1 h before and 7 h after infection, survival at day 6 p.i., class symbols, key not readable
  Wirkung: k.w.
Trichophyton mentagr.
  MIC: > 64 µg/mL
Aspergillus fumigatus
  MIC: > 64 µg/mL
Candida albicans
  MIC: > 64 µg/mL
Torulopsis glabrata
  MIC: > 64 µg/mL

## OC(Cn1cncn1)(c1ccc(Cl)cc1)c1csc(-c2ccc(-n3cncn3)cc2)n1 (stereo not drawn) [Verbindung 42]
Candida; [2]
  Wirkung: bessere Wirkung
[1]
  antimykotische Wirksamkeit: bessere antimykotische Wirksamkeit

## Cc1cccc(-c2nc(C(O)(Cn3cncn3)c3ccc(Cl)cc3)cs2)c1 (stereo not drawn) [Verbindung 36]
[1]
  antimykotische Wirksamkeit: bessere antimykotische Wirksamkeit

## OC(Cn1ccnc1)(c1ccc(F)cc1)c1csc(-c2ccc(Cl)cc2)n1 (stereo not drawn) [Verbindung 39]
[1]
  antimykotische Wirksamkeit: bessere antimykotische Wirksamkeit

## OC(Cn1ccnc1)(c1ccc(Cl)cc1)c1csc(COc2ccc(Cl)cc2Cl)n1 (stereo not drawn) [Verbindung 25]
[1]
  antimykotische Wirksamkeit: bessere antimykotische Wirksamkeit

## CCN(CC)c1nc(C(O)(Cn2cncn2)c2ccc(Cl)cc2)cs1 (stereo not drawn) [Verbindung 49]
[1]
  antimykotische Wirksamkeit: bessere antimykotische Wirksamkeit

## Cc1ccc(C(O)(Cn2ccnc2)c2csc(-c3ccc(Cl)cc3)n2)cc1 (stereo not drawn) [Verbindung 3]
[1]
  antimykotische Wirksamkeit: bessere antimykotische Wirksamkeit
Trichophyton mentagr.
  MIC: < 1 µg/mL
Microsporum canis
  MIC: 16 µg/mL (≈ 40.4 µM)
Aspergillus fumigatus
  MIC: 16 µg/mL (≈ 40.4 µM)
Candida albicans
  MIC: < 1 µg/mL
Torulopsis glabrata
  MIC: 4 µg/mL (≈ 10.1 µM)

## Cc1ccc(-c2nc(C(O)(Cn3ccnc3)c3ccc(Cl)cc3)cs2)cc1 (stereo not drawn) [Verbindung 14]
[1]
  antimykotische Wirksamkeit: bessere antimykotische Wirksamkeit
Trichophyton mentagr.
  MIC: < 1 µg/mL
Microsporum canis
  MIC: 8 µg/mL (≈ 20.2 µM)
Aspergillus fumigatus
  MIC: 4 µg/mL (≈ 10.1 µM)
Candida albicans
  MIC: 2 µg/mL (≈ 5.05 µM)
Torulopsis glabrata
  MIC: 2 µg/mL (≈ 5.05 µM)

## Cc1nc(C(O)(Cn2cncn2)c2ccc(F)cc2)cs1 (stereo not drawn) [Verbindung 1, 1-(4-Fluorphenyl)-1-(2-methylthiazol-4-yl)-2-(1,2,4-triazol-1-yl)-ethanol]
[1]
  antimykotische Wirksamkeit: bessere antimykotische Wirksamkeit
Trichophyton mentagr.
  MIC: 4 µg/mL (≈ 13.1 µM)
Aspergillus fumigatus
  MIC: 32 µg/mL (≈ 105 µM)
Candida albicans
  MIC: 15 µg/mL (≈ 49.3 µM)
Torulopsis glabrata
  MIC: > 64 µg/mL

## OC(Cn1cncn1)(c1ccc(Cl)cc1)c1csc(-c2ccc(-n3cncn3)c(Cl)c2)n1 (stereo not drawn) [Verbindung 23]
Candida; [2]
  Wirkung: bessere Wirkung
[1]
  antimykotische Wirksamkeit: bessere antimykotische Wirksamkeit

## OC(Cn1cncn1)(c1ccc(Cl)cc1)c1csc(COc2ccc(Cl)cc2Cl)n1 (stereo not drawn) [Verbindung 26]
[1]
  antimykotische Wirksamkeit: bessere antimykotische Wirksamkeit

## OC(Cn1ccnc1)(c1ccc(Cl)cc1)c1csc(-c2ccc(-n3ccnc3)c(Cl)c2)n1 (stereo not drawn) [Verbindung 22]
Candida; [2]
  Wirkung: bessere Wirkung
[1]
  antimykotische Wirksamkeit: bessere antimykotische Wirksamkeit

## OC(Cn1cncn1)(c1ccc(Cl)cc1)c1csc(-c2ccc(F)cc2)n1 (stereo not drawn) [Verbindung 41]
Candida; [2]
  Wirkung: bessere Wirkung
[1]
  antimykotische Wirksamkeit: bessere antimykotische Wirksamkeit

## OC(Cn1cncn1)(c1ccc(Cl)cc1)c1csc(-c2ccccc2)n1 (stereo not drawn) [Verbindung 59]
[1]
  antimykotische Wirksamkeit: bessere antimykotische Wirksamkeit
